Laboratory results taken from ChEMBL document CHEMBL1145318, “Amide-substituted farnesylcysteine analogs as inhibitors of human isoprenylcysteine carboxyl methyltransferase” (Bioorg Med Chem Lett, 2006).

Legend:
[1] = target: T1, Protein-S-isoprenylcysteine O-methyltransferase (Homo sapiens, UniProt O60725); test: Inhibition of human Icmt in Saccharomyces cerevisiae cell membrane relative to control by SPA; values are per cent of control; parameters: concentration or dose not given beside the values
[2] = target: T1, Protein-S-isoprenylcysteine O-methyltransferase; test: Inhibition of human Icmt by methanol vapour diffusion assay

T1 sequence (O60725 whole entry, the tested form may be a part): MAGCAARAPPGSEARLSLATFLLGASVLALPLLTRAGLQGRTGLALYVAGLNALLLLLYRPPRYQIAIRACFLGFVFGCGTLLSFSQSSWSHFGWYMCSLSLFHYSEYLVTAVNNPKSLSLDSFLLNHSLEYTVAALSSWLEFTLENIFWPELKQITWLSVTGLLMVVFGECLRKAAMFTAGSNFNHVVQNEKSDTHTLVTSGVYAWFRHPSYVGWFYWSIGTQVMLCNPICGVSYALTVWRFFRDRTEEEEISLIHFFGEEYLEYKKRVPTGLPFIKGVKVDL

Structure (SMILES) | residual activity [1] | IC50 [2]
CC(C)=CCC/C(C)=C/CC/C(C)=C/CSC[C@H](NC(=O)c1cc(Cl)cc(Cl)c1)C(=O)O | 33.5% | 23 µM
CC(C)=CCC/C(C)=C/CC/C(C)=C/CSC[C@H](NC(=O)c1ccc([N+](=O)[O-])cc1)C(=O)O | 50.1% | 16.6 µM
COc1ccc(-c2ccc(C(=O)N[C@@H](CSC/C=C(\C)CC/C=C(\C)CCC=C(C)C)C(=O)O)o2)cc1 | 35.1% | 17.4 µM
CC(C)=CCC/C(C)=C/CC/C(C)=C/CSC[C@H](NC(=O)c1cc([N+](=O)[O-])cc([N+](=O)[O-])c1)C(=O)O | 37.1% | 14.3 µM
CC(C)=CCC/C(C)=C/CC/C(C)=C/CSC[C@H](NC(=O)c1cc2ccccc2s1)C(=O)O | 28% | 20.3 µM
